According to US11008346B2, “Beta-lactamase inhibitors” (priority 2014, dated 2021):

Experiments:
[1] = test system: K. pneumoniae A-1797 expressing KPC-2 and VIM-4; test: broth microdilution MIC, K. pneumoniae KPC-2 and VIM-4; type: cell-based; details: Fixed Mero (meropenem) 4 μg/mL
In short: (§1)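 Compounds were titrated in 2-fold steps from 32 to 0.25 μg/mL in cation-adjusted Mueller Hinton broth with a β-lactam held at 4 μg/mL. Plates were inoculated by CLSI broth microdilution with strains pre-grown 3–5 h. After 16–20 h at 37 °C, MIC was read visually.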

KPC-2 β-lactamase = target: T1, KPC-2 β-lactamase (Klebsiella pneumoniae, UniProt Q9F663); test: β-lactamase enzyme inhibition, KPC-2; type: biochemical; details: imipenem substrate, 300 nm; 15 min at 37° C. preincubation; read-out: IC50 KPC-2 (Class A)
T1 construct: made in house; host or cells: E. coli BL21(DE3)
T1 sequence (Q9F663 25-293, looked up): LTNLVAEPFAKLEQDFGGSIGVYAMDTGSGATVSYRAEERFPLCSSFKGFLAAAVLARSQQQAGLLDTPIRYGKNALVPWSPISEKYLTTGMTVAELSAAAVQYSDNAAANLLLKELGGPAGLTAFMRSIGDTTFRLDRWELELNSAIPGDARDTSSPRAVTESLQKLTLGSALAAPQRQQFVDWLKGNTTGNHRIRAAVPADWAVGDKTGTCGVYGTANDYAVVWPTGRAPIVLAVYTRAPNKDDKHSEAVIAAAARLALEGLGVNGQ
In short: (§2)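 Native untagged enzymes expressed in E. coli BL21(DE3) and purified by cation exchange and gel filtration were preincubated with inhibitor for 15 min at 37° C. Hydrolysis was followed for 10 min: nitrocefin (100 μM final, 486 nm) for OXA-1 and p99 AmpC, imipenem (300 nm) for KPC-2, cefotaxime (260 nm) for SHV-5; IC50 from initial rates.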

[2] = test system: S. aureus MSSA-7 producing penicillinase PC-1; test: broth microdilution MIC, S. aureus PC-1; type: cell-based; details: Fixed Pip (piperacillin) 4 μg/mL
In short: as §1

SHV-5 β-lactamase = target: T2, SHV-5 β-lactamase (Klebsiella pneumoniae, UniProt P0A3M1); test: β-lactamase enzyme inhibition, SHV-5; type: biochemical
T2 construct: made in house; host or cells: E. coli BL21(DE3)
T2 sequence (P0A3M1 22-286): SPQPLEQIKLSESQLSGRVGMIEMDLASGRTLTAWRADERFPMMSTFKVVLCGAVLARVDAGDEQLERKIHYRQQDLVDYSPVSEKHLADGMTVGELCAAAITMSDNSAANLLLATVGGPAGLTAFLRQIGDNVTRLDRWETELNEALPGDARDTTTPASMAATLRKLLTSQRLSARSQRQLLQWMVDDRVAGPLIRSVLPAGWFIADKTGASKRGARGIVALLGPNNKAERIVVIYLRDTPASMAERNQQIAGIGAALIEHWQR
In short: as §2

[3] = target: T3, VIM-2 metallo β-lactamase (Pseudomonas aeruginosa, UniProt Q9K2N0); test: β-lactamase enzyme inhibition, VIM-2; type: biochemical; details: Nitrocefin 100 μM, 486 nm; 15 min at 37° C. preincubation; read-out: IC50 VIM-2 (Class B)
T3 construct: made in house; host or cells: E. coli BL21(DE3)
In short: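 VIM-2 purified by Q sepharose anion exchange (50 mM Hepes pH 7.5, 0-600 mM NaCl gradient, two runs, >90% purity). Enzyme preincubated with inhibitor 15 min at 37° C; nitrocefin 100 μM final, absorbance at 486 nm followed 10 min. IC50 from initial hydrolysis rates versus inhibitor-free controls.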

[4] = test system: E. coli ESBL4 expressing CTX-M-15; test: broth microdilution MIC, E. coli CTX-M-15; type: cell-based; details: Fixed CAZ (ceftazidime) 4 μg/mL
In short: as §1

OXA-1 β-lactamase = target: T4, OXA-1 β-lactamase (Escherichia coli, UniProt P13661); test: β-lactamase enzyme inhibition, OXA-1; type: biochemical; details: Nitrocefin 100 μM, 486 nm; 15 min at 37° C. preincubation; read-out: IC50 OXA-1 (Class D)
T4 construct: made in house; host or cells: E. coli BL21(DE3)
T4 sequence (P13661 26-276): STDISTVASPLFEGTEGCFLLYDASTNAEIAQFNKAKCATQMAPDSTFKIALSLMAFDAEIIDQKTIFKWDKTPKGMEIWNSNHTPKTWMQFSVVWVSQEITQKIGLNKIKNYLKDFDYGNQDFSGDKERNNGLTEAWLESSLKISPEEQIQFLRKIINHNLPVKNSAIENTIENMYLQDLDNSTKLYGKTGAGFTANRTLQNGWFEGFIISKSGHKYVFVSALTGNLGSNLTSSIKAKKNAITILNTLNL
In short: as §2

[5] = test system: P. aeruginosa Ps296 expressing VIM-2; test: broth microdilution MIC, P. aeruginosa VIM-2; type: cell-based; details: Fixed Mero (meropenem) 4 μg/mL
In short: as §1

[6] = test system: K. pneumoniae 156319 expressing KPC-3; test: broth microdilution MIC, K. pneumoniae KPC-3; type: cell-based; details: Fixed Mero (meropenem) 4 μg/mL
In short: as §1

p99 AmpC β-lactamase = target: T5, p99 AmpC β-lactamase (Enterobacter cloacae, UniProt P05364); test: β-lactamase enzyme inhibition, p99 AmpC; type: biochemical
T5 construct: made in house; host or cells: E. coli BL21(DE3)
T5 sequence (P05364 21-381): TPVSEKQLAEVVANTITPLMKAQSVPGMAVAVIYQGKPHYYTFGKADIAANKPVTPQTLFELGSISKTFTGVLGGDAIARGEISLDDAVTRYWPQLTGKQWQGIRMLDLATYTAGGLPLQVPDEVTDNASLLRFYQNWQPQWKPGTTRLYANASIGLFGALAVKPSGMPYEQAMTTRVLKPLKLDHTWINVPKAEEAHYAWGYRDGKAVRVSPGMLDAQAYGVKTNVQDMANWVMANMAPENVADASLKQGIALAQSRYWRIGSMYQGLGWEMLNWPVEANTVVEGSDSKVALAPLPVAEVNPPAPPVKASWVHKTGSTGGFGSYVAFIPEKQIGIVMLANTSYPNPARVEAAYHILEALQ
In short: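 Native untagged E. cloacae p99 AmpC was expressed in E. coli BL21(DE3) and purified by cation exchange and gel filtration. Enzyme was preincubated with inhibitor at 37°C for 15 min.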

[7] = test system: E. cloacae 144200 expressing Class C P99 AmpC; test: broth microdilution MIC, E. cloacae P99; type: cell-based; details: Fixed CAZ (ceftazidime) 4 μg/mL
In short: as §1

SMILES	MIC of exemplary compounds in presence of fixed β-lactams, K.P. A-1797 KPC-2 VIM-4 [1]	IC50 (KPC-2 β-lactamase) [nM]	MIC of exemplary compounds in presence of fixed β-lactams, S. aureus MSSA-7 PC-1 [2]	IC50 (SHV-5 β-lactamase) [nM]	IC50 [3] [nM]	MIC of exemplary compounds in presence of fixed β-lactams, E. coli ESBL4 CTX-M-15 [4]	IC50 (OXA-1 β-lactamase) [nM]	MIC of exemplary compounds in presence of fixed β-lactams, P. aerug. Ps296 VIM-2 [5]	MIC of exemplary compounds in presence of fixed β-lactams, K.P. 156319 KPC-3 [6]	IC50 (p99 AmpC β-lactamase) [nM]	MIC of exemplary compounds in presence of fixed β-lactams, E. cl. 144200 p99 AmpC [7]
O=C(/C=C/Cl)N[C@H]1Cc2cccc(C(=O)O)c2OB1O [Example 12, (R)-3-(3-Chloro-acryloylamino)-2-hydroxy-3,4-dihydro-2H-benzo[e][1,2]oxaborinine-8-carboxylic acid]	A (A represents an MIC of the fixed β-lactam antibiotic in the presence of >32 g/mL of a β-lactamase inhibitor)	< 100	C (C represents the MIC in the presence of ≤4 g/mL of a β-lactamase inhibitor)	< 100	100 to 1000	C (C represents the MIC in the presence of ≤4 g/mL of a β-lactamase inhibitor)	< 100	B (B represents the MIC in the presence of between 8 and 32 g/mL of a β-lactamase inhibitor)	B (B represents the MIC in the presence of between 8 and 32 g/mL of a β-lactamase inhibitor)	< 100	C (C represents the MIC in the presence of ≤4 g/mL of a β-lactamase inhibitor)
O=C(CC(F)(F)F)N[C@H]1Cc2cccc(C(=O)O)c2OB1O [Example 4, (R)-2-Hydroxy-3-(3,3,3-trifluoro-propionylamino)-3,4-dihydro-2H-benzo[e][1,2]oxaborinine-8-carboxylic acid]	B (B represents the MIC in the presence of between 8 and 32 g/mL of a β-lactamase inhibitor)	100 to 1000	C (C represents the MIC in the presence of ≤4 g/mL of a β-lactamase inhibitor)	< 100	1000 to 10000	C (C represents the MIC in the presence of ≤4 g/mL of a β-lactamase inhibitor)	< 100	C (C represents the MIC in the presence of ≤4 g/mL of a β-lactamase inhibitor)	C (C represents the MIC in the presence of ≤4 g/mL of a β-lactamase inhibitor)	< 100	C (C represents the MIC in the presence of ≤4 g/mL of a β-lactamase inhibitor)
CC(=O)CCCC(=O)N[C@H]1Cc2cccc(C(=O)O)c2OB1O [Example 13, (R)-2-Hydroxy-3-(5-oxo-hexanoylamino)-3,4-dihydro-2H-benzo[e][1,2]oxaborinine-8-carboxylic acid]	C (C represents the MIC in the presence of ≤4 g/mL of a β-lactamase inhibitor)	100 to 1000	C (C represents the MIC in the presence of ≤4 g/mL of a β-lactamase inhibitor)	< 100	100 to 1000	C (C represents the MIC in the presence of ≤4 g/mL of a β-lactamase inhibitor)	< 100	C (C represents the MIC in the presence of ≤4 g/mL of a β-lactamase inhibitor)	C (C represents the MIC in the presence of ≤4 g/mL of a β-lactamase inhibitor)	< 100	C (C represents the MIC in the presence of ≤4 g/mL of a β-lactamase inhibitor)
CC(=O)NCCC(=O)N[C@H]1Cc2cccc(C(=O)O)c2OB1O [Example 20, (R)-3-(3-Acetylamino-propionylamino)-2-hydroxy-3,4-dihydro-2H-benzo[e][1,2]oxaborinine-8-carboxylicacid]	B (B represents the MIC in the presence of between 8 and 32 g/mL of a β-lactamase inhibitor)	< 100	B (B represents the MIC in the presence of between 8 and 32 g/mL of a β-lactamase inhibitor)	< 100	1000 to 10000	C (C represents the MIC in the presence of ≤4 g/mL of a β-lactamase inhibitor)	< 100	A (A represents an MIC of the fixed β-lactam antibiotic in the presence of >32 g/mL of a β-lactamase inhibitor)	C (C represents the MIC in the presence of ≤4 g/mL of a β-lactamase inhibitor)	< 100	C (C represents the MIC in the presence of ≤4 g/mL of a β-lactamase inhibitor)
O=C(CCc1cncs1)N[C@H]1Cc2cccc(C(=O)O)c2OB1O [Example 32, (R)-2-hydroxy-3-(3-(thiazol-5-yl)propanamido)-3,4-dihydro-2H-benzo[e][1,2]oxaborinine-8-carboxylicacid]	B (B represents the MIC in the presence of between 8 and 32 g/mL of a β-lactamase inhibitor)	< 100	C (C represents the MIC in the presence of ≤4 g/mL of a β-lactamase inhibitor)	< 100	1000 to 10000	C (C represents the MIC in the presence of ≤4 g/mL of a β-lactamase inhibitor)	< 100	C (C represents the MIC in the presence of ≤4 g/mL of a β-lactamase inhibitor)	C (C represents the MIC in the presence of ≤4 g/mL of a β-lactamase inhibitor)	< 100	C (C represents the MIC in the presence of ≤4 g/mL of a β-lactamase inhibitor)
O=C(CN1CCOC1=O)N[C@H]1Cc2cccc(C(=O)O)c2OB1O [Example 30, (R)-2-Hydroxy-3-[2-(2-oxo-oxazolidin-3-yl)-acetylamino]-3,4-dihydro-2H-benzo[e][1,2]oxaborinine-8-carboxylicacid]	C (C represents the MIC in the presence of ≤4 g/mL of a β-lactamase inhibitor)	< 100	C (C represents the MIC in the presence of ≤4 g/mL of a β-lactamase inhibitor)	< 100	100 to 1000	C (C represents the MIC in the presence of ≤4 g/mL of a β-lactamase inhibitor)	< 100	C (C represents the MIC in the presence of ≤4 g/mL of a β-lactamase inhibitor)	C (C represents the MIC in the presence of ≤4 g/mL of a β-lactamase inhibitor)	< 100	C (C represents the MIC in the presence of ≤4 g/mL of a β-lactamase inhibitor)
